Measured values reported in publication PMC11285368, “Chasing Red Herrings: Palladium Metal Salt Impurities Feigning KRAS Activity in Biochemical Assays” (Journal of Medicinal Chemistry, 2024).
Where two headings read alike, the source gives them in different places.

Columns and labels:
Assay type in all cases: biochemical
off-target = assay: FKBP51 AlphaScreen, Target #2
Experimental: (§1) Metal salt solutions for the metal ion interference set (MIIS) were prepared as 10 mM stock solutions in DMSO (see Table 3). All metal salts used have been purchased at highest industrial grade.

EGFR = EGFR (Homo sapiens, UniProt P00533); assay: EGFR MALDI; settings: read-out: Target #1 IC50
Experimental: as §1

off target = assay: MDM2 AlphaScreen, Target #3
Experimental: as §1

WRN (ext.) = WRN (ext.) (Homo sapiens, UniProt Q14191); assay: WRN ADP-Glo, Target #2
Experimental: as §1

KRAS = KRAS (Homo sapiens, UniProt P01116); assay: KRAS TR-FRET (MIIS list); settings: read-out: Target #1 IC50
Experimental: as §1

UPAR = UPAR (Homo sapiens, UniProt Q03405); assay: UPA-UPAR AlphaScreen, Target #1
Experimental: as §1

KRAS^G12D(GTP)::CRAF [1] = biological target: T1, KRAS^G12D(GTP)::CRAF (Homo sapiens, UniProt P01116, G12D); assay: KRAS^G12D(GTP)::CRAF TR-FRET; settings: Fluorescence; GST-CRAF^(51–131) and KRAS^G12D(1–169)-biotin
T1 construct: KRAS^G12D 1–169, N-terminal 6His-tag, C-terminal avi-tag (Xtal BioStructures, Inc.); 6His (N); purchased Xtal BioStructures, Inc. (KRAS); Viva Biotech Ltd. (CRAF)
Experimental: Plates were kept at room temperature in a darkened incubator.
(§2) IC50 values were calculated and analyzed with Boehringer Ingelheim’s MEGALAB IC50 application using a 4 parametric logistic model.

KRAS^G12D(GTP)::CRAF [2] = biological target: T1, KRAS^G12D(GTP)::CRAF; assay: KRAS^G12D(GTP)::CRAF AlphaScreen
Experimental: The proteins have been used at these given final assay concentrations:
Test compounds dissolved in DMSO were dispensed onto assay plates (Proxiplate 384 PLUS, white, PerkinElmer; 6008289) using an Access Labcyte Workstation with the Labcyte Echo 555. For the chosen highest assay concentration of 100 μM, 150 nl of compound solution were transferred from a 10 mM DMSO compound stock solution. A series of 11 5-fold dilutions per compound was transferred to the assay plate, and compound dilutions were tested in duplicates. DMSO was added as backfill to a total volume of 150 nl. The assay was run on a fully automated robotic system in a darkened room below 100 Lux. […] After 60 min incubation time 5 μL of AlphaScreen bead mix in assay buffer were added into columns 1–23. Bead mix consisted of AlphaLISA Glutathione Acceptor Beads (PerkinElmer, cat. no. AL109) and Alpha-Screen Streptavidin Donor Beads (perkinElmer cat. no. 6760002) in assay buffer at a final assay concentration of 10 μg/mL each. Plates were kept at room temperature in a darkened incubator. After an additional 60 min incubation time the signal was measured on a PerkinElmer Envision HTS Multilabel Reader using the AlphaScreen specs from PerkinElmer.
as §2

biotinylated GST = biotinylated GST (Schistosoma japonicum, UniProt P08515); assay: Control assay (AlphaScreen Shortcut)
Experimental: This assay was developed to identify compounds that interfere with the assay format using AlphaLISA Glutathione Acceptor and AlphaScreen Streptavidin Donor beads. The assay was performed as described above using biotinylated GST as bridging reagent instead of KRAS^G12D and CRAF mix.

EGFR, sequence (P00533 25-1210, species assumed): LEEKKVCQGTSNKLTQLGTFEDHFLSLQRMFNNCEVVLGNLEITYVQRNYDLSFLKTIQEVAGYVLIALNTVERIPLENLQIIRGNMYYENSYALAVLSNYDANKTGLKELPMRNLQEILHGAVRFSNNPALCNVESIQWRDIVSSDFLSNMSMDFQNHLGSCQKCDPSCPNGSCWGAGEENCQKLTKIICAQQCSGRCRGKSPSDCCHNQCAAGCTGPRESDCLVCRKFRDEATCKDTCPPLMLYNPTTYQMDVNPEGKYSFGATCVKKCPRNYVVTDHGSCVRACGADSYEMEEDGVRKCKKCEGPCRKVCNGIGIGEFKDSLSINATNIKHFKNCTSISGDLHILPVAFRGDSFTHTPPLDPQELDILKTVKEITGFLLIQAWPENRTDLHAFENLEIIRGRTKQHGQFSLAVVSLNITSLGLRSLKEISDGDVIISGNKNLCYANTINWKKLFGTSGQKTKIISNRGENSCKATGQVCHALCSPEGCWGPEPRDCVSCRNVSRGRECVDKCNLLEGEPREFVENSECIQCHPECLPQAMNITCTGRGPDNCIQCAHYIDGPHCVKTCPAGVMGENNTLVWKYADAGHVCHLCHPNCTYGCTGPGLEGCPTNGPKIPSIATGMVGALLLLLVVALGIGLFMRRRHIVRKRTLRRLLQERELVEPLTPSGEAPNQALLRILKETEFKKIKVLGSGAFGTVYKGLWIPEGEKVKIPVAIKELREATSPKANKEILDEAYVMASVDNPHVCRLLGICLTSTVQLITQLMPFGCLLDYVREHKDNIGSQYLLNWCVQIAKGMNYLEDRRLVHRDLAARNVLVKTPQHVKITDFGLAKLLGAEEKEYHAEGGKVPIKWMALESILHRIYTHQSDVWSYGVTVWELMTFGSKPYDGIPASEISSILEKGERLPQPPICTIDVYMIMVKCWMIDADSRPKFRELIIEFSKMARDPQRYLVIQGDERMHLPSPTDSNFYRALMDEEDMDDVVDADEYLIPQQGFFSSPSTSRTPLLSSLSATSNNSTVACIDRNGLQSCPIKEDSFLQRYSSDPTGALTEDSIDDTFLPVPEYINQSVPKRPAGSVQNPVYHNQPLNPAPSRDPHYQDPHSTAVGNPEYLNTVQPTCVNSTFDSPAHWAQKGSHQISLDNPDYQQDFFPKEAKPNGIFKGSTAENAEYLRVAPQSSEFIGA
T1 sequence (P01116 1-169 isoform P01116-2 G12D): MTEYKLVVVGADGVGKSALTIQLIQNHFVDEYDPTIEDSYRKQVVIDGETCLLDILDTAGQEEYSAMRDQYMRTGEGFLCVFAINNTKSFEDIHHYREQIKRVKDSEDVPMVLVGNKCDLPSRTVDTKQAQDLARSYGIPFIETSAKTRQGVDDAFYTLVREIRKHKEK
UPAR, sequence (Q03405 23-305 limits assumed, species assumed): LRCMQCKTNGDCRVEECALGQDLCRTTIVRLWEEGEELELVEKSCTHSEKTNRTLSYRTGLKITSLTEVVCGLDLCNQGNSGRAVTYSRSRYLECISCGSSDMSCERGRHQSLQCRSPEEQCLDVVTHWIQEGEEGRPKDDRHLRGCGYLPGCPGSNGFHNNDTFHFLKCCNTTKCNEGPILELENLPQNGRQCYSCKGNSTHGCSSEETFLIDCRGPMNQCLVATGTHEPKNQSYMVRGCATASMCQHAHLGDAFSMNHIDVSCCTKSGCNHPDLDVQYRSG
WRN (ext.), sequence (Q14191 whole entry, species assumed): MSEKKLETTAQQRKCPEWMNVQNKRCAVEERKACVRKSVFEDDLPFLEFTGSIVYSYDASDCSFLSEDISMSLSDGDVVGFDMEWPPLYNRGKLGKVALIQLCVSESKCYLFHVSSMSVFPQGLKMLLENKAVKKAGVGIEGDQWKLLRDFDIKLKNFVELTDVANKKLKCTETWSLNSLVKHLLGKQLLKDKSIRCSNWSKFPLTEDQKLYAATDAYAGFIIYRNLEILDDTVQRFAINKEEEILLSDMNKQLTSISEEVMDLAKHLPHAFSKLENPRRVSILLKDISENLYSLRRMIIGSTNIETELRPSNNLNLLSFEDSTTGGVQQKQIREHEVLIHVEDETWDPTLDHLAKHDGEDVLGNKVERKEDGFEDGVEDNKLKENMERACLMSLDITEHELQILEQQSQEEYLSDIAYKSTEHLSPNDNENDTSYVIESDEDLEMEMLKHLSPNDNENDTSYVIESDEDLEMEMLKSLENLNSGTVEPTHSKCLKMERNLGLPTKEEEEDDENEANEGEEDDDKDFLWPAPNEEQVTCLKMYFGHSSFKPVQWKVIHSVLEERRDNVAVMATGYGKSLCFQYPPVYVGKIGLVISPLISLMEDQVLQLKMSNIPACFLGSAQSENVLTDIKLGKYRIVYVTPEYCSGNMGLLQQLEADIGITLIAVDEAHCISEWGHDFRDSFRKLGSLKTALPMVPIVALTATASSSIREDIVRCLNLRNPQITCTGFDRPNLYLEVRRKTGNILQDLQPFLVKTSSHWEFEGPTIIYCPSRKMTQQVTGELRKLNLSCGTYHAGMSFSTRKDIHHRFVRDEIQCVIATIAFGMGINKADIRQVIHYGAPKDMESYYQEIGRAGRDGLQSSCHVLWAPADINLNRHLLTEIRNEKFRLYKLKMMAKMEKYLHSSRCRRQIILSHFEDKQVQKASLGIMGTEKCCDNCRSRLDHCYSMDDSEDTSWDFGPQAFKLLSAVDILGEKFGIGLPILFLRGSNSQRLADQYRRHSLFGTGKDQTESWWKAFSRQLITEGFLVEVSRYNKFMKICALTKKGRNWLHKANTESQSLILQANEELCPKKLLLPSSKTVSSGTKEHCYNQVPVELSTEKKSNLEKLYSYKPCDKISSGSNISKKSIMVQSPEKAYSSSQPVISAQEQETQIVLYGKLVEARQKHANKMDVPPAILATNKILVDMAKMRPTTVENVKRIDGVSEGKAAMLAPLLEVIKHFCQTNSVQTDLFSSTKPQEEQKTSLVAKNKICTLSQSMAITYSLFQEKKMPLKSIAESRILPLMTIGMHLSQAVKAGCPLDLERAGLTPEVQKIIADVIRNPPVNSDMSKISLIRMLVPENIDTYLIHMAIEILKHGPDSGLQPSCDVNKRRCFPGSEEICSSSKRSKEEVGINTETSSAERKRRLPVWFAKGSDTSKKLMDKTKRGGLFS
biotinylated GST, sequence (P08515 whole entry): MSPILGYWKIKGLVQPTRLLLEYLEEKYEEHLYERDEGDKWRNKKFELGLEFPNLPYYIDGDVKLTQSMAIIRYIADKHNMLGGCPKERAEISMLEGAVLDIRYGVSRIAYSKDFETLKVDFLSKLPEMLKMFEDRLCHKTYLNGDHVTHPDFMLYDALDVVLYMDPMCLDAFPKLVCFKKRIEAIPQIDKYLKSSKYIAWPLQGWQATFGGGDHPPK
KRAS, sequence (P01116 1-188 isoform P01116-2): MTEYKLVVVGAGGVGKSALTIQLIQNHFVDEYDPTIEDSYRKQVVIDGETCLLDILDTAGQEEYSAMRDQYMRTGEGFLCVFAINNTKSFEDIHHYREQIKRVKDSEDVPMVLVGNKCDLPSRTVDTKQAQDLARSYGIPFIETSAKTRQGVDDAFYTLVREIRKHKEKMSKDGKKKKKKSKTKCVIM

Row | Structure (SMILES) | IC50 (off-target) [µM] | IC50 (EGFR) [µM] | IC50 (off target) [µM] | IC50 (WRN (ext.)) [µM] | IC50 (UPAR) [µM] | IC50 (KRAS) [µM] | IC50 (KRAS^G12D(GTP)::CRAF [1]) [µM] | IC50 (KRAS^G12D(GTP)::CRAF [2]; Batch 1, read-out: KRAS^G12D(GTP)::CRAF AlphaScreen IC50) [µM] | IC50 (KRAS^G12D(GTP)::CRAF [2]; Luminescence, GST-CRAF^(1–303) and KRAS^G12D(1–169)-biotin, read-out: IC50, KRAS^G12D(GTP)::CRAF AlphaScreen) [µM] | IC50 (biotinylated GST; Batch 1, read-out: Control assay IC50) [µM] | IC50 (biotinylated GST; Luminescence, biotinylated GST, read-out: IC50, Control assay) [µM]
1 | CC(=O)[O-].[Ag+] [Ag (CH 3COO), Silver acetate] | > 10 | > 10 | > 10 | > 10 | – | < 1 | – | – | – | – | –
2 | O=[N+]([O-])[O-].O=[N+]([O-])[O-].O=[N+]([O-])[O-].[Al+3] [Al(NO3)3, Aluminum nitrate] | 1 to 10 | > 10 | > 10 | > 10 | > 10 | – | – | – | – | – | –
3 | [Cl-].[Cl-].[Co+2] [CoCl2, Cobalt(II) chloride] | > 10 | > 10 | > 10 | > 10 | 1 to 10 | – | – | – | – | – | –
4 | [Cl-].[Cl-].[Mg+2] [MgCl2, Magnesium chloride] | > 10 | > 10 | > 10 | > 10 | > 10 | – | – | – | – | – | –
5 | [Cl][Ni][Cl] [NiCl2, Nickel(II) chloride] | > 10 | > 10 | > 10 | > 10 | < 1 | – | – | – | – | – | –
6 | [Cl][Pd][Cl] [PdCl2, Palladium(II) chloride] | > 10 | > 10 | > 10 | 1 to 10 | < 1 | – | 40.5 ± 19.2 | 0.7 ± 0.2 | 0.7 ± 0.2 | 5.8 ± 0.7 | 5.8 ± 0.7
7 | [Cl][Sn][Cl] [SnCl2, Tin(II) chloride] | > 10 | > 10 | > 10 | > 10 | > 10 | – | – | – | – | – | –

Continued, in another order:

Row | IC50 (off-target) [µM] | IC50 (EGFR) [µM] | IC50 (off target) [µM] | IC50 (WRN (ext.)) [µM] | IC50 (UPAR) [µM] | Structure (SMILES) | IC50 (KRAS) [µM] | IC50 (KRAS^G12D(GTP)::CRAF [1]) [µM] | IC50 (KRAS^G12D(GTP)::CRAF [2]; Batch 1, read-out: KRAS^G12D(GTP)::CRAF AlphaScreen IC50) [µM] | IC50 (KRAS^G12D(GTP)::CRAF [2]; Luminescence, GST-CRAF^(1–303) and KRAS^G12D(1–169)-biotin, read-out: IC50, KRAS^G12D(GTP)::CRAF AlphaScreen) [µM] | IC50 (biotinylated GST; Batch 1, read-out: Control assay IC50) [µM] | IC50 (biotinylated GST; Luminescence, biotinylated GST, read-out: IC50, Control assay) [µM]
8 | > 10 | > 10 | > 10 | 1 to 10 | 1 to 10 | [Cl][Au]([Cl])[Cl] [AuCl3, Gold(III) chloride] | < 1 | – | – | – | – | –
9 | > 10 | > 10 | > 10 | 1 to 10 | < 1 | [Cl][Cu][Cl] [CuCl2, Copper(II) chloride] | – | – | – | – | – | –
10 | > 10 | > 10 | > 10 | > 10 | > 10 | [Cl][Fe][Cl] [FeCl2, Iron(II) chloride] | – | – | – | – | – | –
11 | > 10 | > 10 | > 10 | > 10 | > 10 | [Cl][Fe]([Cl])[Cl] [FeCl3, Iron(III) chloride] | – | – | – | – | – | –
12 | > 10 | > 10 | > 10 | > 10 | > 10 | [Cl][Mn][Cl] [MnCl2, Manganese(II) chloride] | – | – | – | – | – | –
13 | > 10 | > 10 | > 10 | > 10 | < 1 | [Cl-].[Cl-].[Zn+2] [ZnCl2, Zinc(II) chloride] | – | – | – | – | – | –
